# Measurements: patent US20100022778A1, “PROCESS FOR PRODUCTION OF SULFINYLBENZIMIDAZOLE COMPOUNDS OR SALTS THEREOF” (priority 2006, published 2010)
# Tested on: gastric acid secretion in dogs having chronic gastric fistula
# Test: Gastric acid secretion inhibiting effect in dogs having chronic gastric fistula (histamine-stimulated)
# Format: in vivo
# Conditions: dog, histamine i.v.; for Gastric Acid Secretion Inhibiting Action (%): first day, 1 h 40 min to 2 h after administration; for Gastric Acid Secretion Inhibiting Persistence (%): second day (24 hours after administration)
# Procedure: Using large dogs (body weight approximately 14 to 19 kg) having a chronic gastric fistula, the gastric acid secretion inhibiting action and gastric acid secretion inhibiting action persistence of test compounds of the Examples was investigated. The experiment was carried out over 2 days. On the first day, gastric juice was collected every 20 minutes under conditions of intravenously administering histamine (50 or 75 μg/kg/h) continuously for 3 hours. 1 Hour after commencing the histamine administration, the test compound suspended or dissolved in a 0.5% methylcellulose solution was administered at a volume of 0.1 ml/kg via an indwelling catheter in the duodenum. The gastric acid secretion inhibiting action of the test compound was then investigated over the subsequent 2 hours. On the second day (24 hours after the administration of the test compound), gastric juice was collected every 20 minutes under conditions of intravenously administering histamine continuously for 2 hours, and the gastric acid secretion inhibiting action persistence was investigated. After measuring the amount of gastric juice, a 0.5 ml sample of the gastric juice was taken, and neutralization titration was carried out to a pH of 7.0 with a 0.04 mol/l sodium hydroxide solution so as to measure the acid concentration. The acid concentration was multiplied by the amount of gastric juice so as to determine the gastric acid output. The gastric acid secretion inhibiting action was evaluated as the gastric acid secretion suppression rate (%) on the first day. The gastric acid secretion inhibiting action (%) was calculated using the following formula. In the case of 2 or more dogs, the mean over all of the dogs was calculated and is shown.
# Gastric acid secretion inhibiting action (%)=(A−B)/A×100
# [A] Gastric acid output over 20 minutes from 40 minutes to 1 hour after commencement of histamine administration [B] Gastric acid output over 20 minutes from 1 hour 40 minutes to 2 hours after administration of test compound
# The gastric acid secretion inhibiting action persistence was evaluated as the gastric acid secretion suppression rate (%) on the second day. The gastric acid secretion inhibiting action persistence (%) was calculated using the following formula.
# Gastric acid secretion inhibiting action persistence (%)=(C−D)/C×100
# [C] Total gastric acid output from commencement of histamine administration on first day to 1 hour thereafter [D] Total gastric acid output from commencement of histamine administration on second day to 1 hour thereafter
# [1] = 0.4 mg/kg i.d., mean of 10 dogs
compound,measurement,setting,value
"Cc1cnc(C[S+]([O-])c2nc3ccccc3[n-]2)c(C)c1OCC1COC(C)(C)OC1.[Na+] (stereo not drawn) [Compound X, Sodium Salt of Optical Isomer Having Short Retention Time of 2-[[[4-(2,2-dimethyl-1,3-dioxan-5-yl)methoxy-3,5-dimethylpyridin-2-yl]methyl]sulfinyl]-1H-benzimidazole]",Gastric Acid Secretion Inhibiting Action (%),"0.1 mg/kg i.d., mean of 4 dogs",8%
same,Gastric Acid Secretion Inhibiting Persistence (%),"0.1 mg/kg i.d., mean of 4 dogs",6%
same,Gastric Acid Secretion Inhibiting Action (%),"0.2 mg/kg i.d., mean of 4 dogs",65%
same,Gastric Acid Secretion Inhibiting Persistence (%),"0.2 mg/kg i.d., mean of 4 dogs",46%
same,Gastric Acid Secretion Inhibiting Action (%),[1],97%
same,Gastric Acid Secretion Inhibiting Persistence (%),[1],77%
same,Gastric Acid Secretion Inhibiting Action (%),"0.8 mg/kg i.d., mean of 8 dogs",100%
same,Gastric Acid Secretion Inhibiting Persistence (%),"0.8 mg/kg i.d., mean of 8 dogs",89%
